Test system: disseminated L1210 murine leukemia
Experiment: Antileukemic activity against disseminated L1210 murine leukemia (in vivo, iv treatment)
Parameters: species or system mouse
Conditions: for LTS (Long Term Survivors (>60 days) at the end the experiment) / Tox (Number of toxic deaths/number of mice) / ILS% (Increase in life span): combination at the same doses and schedule; for ILS% (Increase in life span): L1210 cells 10^5/mouse iv on day 0
Source text: Combining doxorubicin and Ia at the same doses with the same schedule an increase of activity with ILS% values of 150 was observed, indicating a synergistic effect.
For these experiments Ia was solubilized in [Cremophor® /EtOH= 6.5:3.5]/[normal saline]=20/80 v/v, while standard etoposide pharmaceutical preparation and doxorubicin solubilized in water were used.

[1] = Table 1 experiment: Ia 1 mg/kg/day iv days +1,2, Etoposide 30 mg/kg/day iv day +3
[2] = etoposide alone 30 mg/kg day +3, Ia alone 1 mg/kg days +1,2
[3] = Table 2 experiment: Ia 1.5 mg/kg/day iv days +1,2, Doxorubicin 13 mg/kg/day iv day +3
[4] = doxorubicin alone 13 mg/kg day +3, Ia alone 1.5 mg/kg days +1,2

Row | Structure (SMILES) | LTS (Long Term Survivors (>60 days) at the end the experiment) [1] | Tox (Number of toxic deaths/number of mice) [1] | ILS% (Increase in life span) [1] [%] | toxicity (in words) [2] | LTS (Long Term Survivors (>60 days) at the end the experiment) [3] | Tox (Number of toxic deaths/number of mice) [3] | ILS% (Increase in life span) [3] [%] | toxicity (in words) [4]
1 | COc1cc([C@@H]2c3cc4c(cc3[C@@H](O[C@@H]3O[C@@H]5CO[C@@H](C)O[C@H]5[C@H](O)[C@H]3O)[C@H]3COC(=O)[C@H]23)OCO4)cc(OC)c1O [Etoposide, etoposide] | 0/10 | 0/10 | 100 | without toxicity |  |  |  | 
2 | COc1cccc2c1C(=O)c1c(O)c3c(c(O)c1C2=O)C[C@@](O)(C(=O)CO)C[C@@H]3O[C@H]1C[C@H](N)[C@H](O)[C@H](C)O1 [Doxorubicin, doxorubicin] |  |  |  |  | 0/10 | 0/10 | 50 | without toxicity
3 | CC(=O)[C@]1(O)Cc2c(O)c3c(c(O)c2[C@@H](O[C@H]2C[C@H](N4CC4)[C@H](OS(C)(=O)=O)[C@H](C)O2)C1)C(=O)c1ccccc1C3=O [Ia, 4-demethoxy-3'-deamino-3'-aziridinyl-4'-methansulfonyl daunorubicin] | 0/10 | 0/10 | 67 | without toxicity | 0/10 | 0/10 | 67 | without toxicity

— EP1165069B1, “ANTITUMOUR SYNERGISTIC COMPOSITION” (Pharmacia Italia S.p.A., priority 1999, dated 2000)
